Results reported in patent US9730937B2, “RAF kinase modulator compounds and methods of use thereof” (AMBIT BIOSCIENCES CORPORATION, priority 2008, dated 2017).

These compounds were tested on panel of 290 distinct kinases (321 in the larger panel), excluding mutant variants. Conditions: asterisk: panel of 321 distinct kinases.
For `COCCOc1cc2ncnc(Oc3cccc(NC(=O)Nc4cc(C(C)C)on4)c3)c2cc1OC` [Ex 206, 1-(5-isopropylisoxazol-3-yl)-3-(3-(6-methoxy-7-(2-methoxyethoxy)quinazolin-4-yloxy)phenyl)urea], the S35 was “C* (0.20 < C ≦ 0.40)”. For `COCCOc1cc2ncnc(Oc3cccc(NC(=O)Nc4cc(C(F)(F)F)no4)c3)c2cc1OC` [Ex 229, 1-(3-(6-methoxy-7-(2-methoxyethoxy)quinazolin-4-yloxy)phenyl)-3-(3-(trifluoromethyl)isoxazol-5-yl)urea], the S35 was “C* (0.20 < C ≦ 0.40)”. In the case of `COCCOc1cc2ncnc(Oc3cccc(NC(=O)Nc4cc(C(C)(C)COC)on4)c3)c2cc1OC` [Ex 217, 1-(5-(1-methoxy-2-methylpropan-2-yl)isoxazol-3-yl)-3-(3-(6-methoxy-7-(2-methoxyethoxy)quinazolin-4-yloxy)phenyl)urea], the S35 is reported as “C* (0.20 < C ≦ 0.40)”. With `COCCOc1cc2ncnc(Oc3cccc(NC(=O)Nc4cc(C(F)(F)F)nn4C)c3)c2cc1OC` [Ex 220, 1-{3-[6-methoxy-7-(2-methoxyethoxy)quinazolin-4-yloxy]phenyl}-3-[1-methyl-3-(trifluoromethyl)-1H-pyrazol-5-yl]urea] the S35 was “C* (0.20 < C ≦ 0.40)”. For `COc1cc2c(Oc3cccc(NC(=O)Nc4ccc(OC)c(C(F)(F)F)c4)c3)ncnc2cc1OCCN1CCOCC1` [Ex 250, 1-(4-methoxy-3-(trifluoromethyl)phenyl)-3-(3-(6-methoxy-7-(2-morpholinoethoxy)quinazolin-4-yloxy)phenyl)urea], the S35 was “C* (0.20 < C ≦ 0.40)”. `COCCOc1cc2ncnc(Oc3cccc(NC(=O)Nc4cc(C(F)(F)F)nn4-c4ccccc4)c3)c2cc1OC` [Ex 221, 1-{3-[6-methoxy-7-(2-methoxyethoxy)quinazolin-4-yloxy]phenyl}-3-[1-phenyl-3-(trifluoromethyl)-1H-pyrazol-5-yl]urea] was tested, and the S35 was “C* (0.20 < C ≦ 0.40)”. With `COCCOc1cc2ncnc(Oc3cccc(NC(=O)Nc4cc(C5CC5)no4)c3)c2cc1OC` [Ex 214, 1-(3-cyclopropylisoxazol-5-yl)-3-(3-(6-methoxy-7-(2-methoxyethoxy)quinazolin-4-yloxy)phenyl)urea] the S35 was “C* (0.20 < C ≦ 0.40)”. `COCCOc1cc2ncnc(Sc3cccc(NC(=O)Nc4cc(C5CCCC5)on4)c3)c2cc1OC` [Ex 235, 1-(5-cyclopentylisoxazol-3-yl)-3-(3-(6-methoxy-7-(2-methoxyethoxy)quinazolin-4-ylthio)phenyl)urea] was tested, and the S35 was “C* (0.20 < C ≦ 0.40)”. For `COc1cc2c(Sc3cccc(NC(=O)Nc4ccc(OC)c(C(F)(F)F)c4)c3)ncnc2cc1OCCN1CCOCC1` [Ex 249, 1-(4-methoxy-3-(trifluoromethyl)phenyl)-3-(3-(6-methoxy-7-(2-morpholinoethoxy)quinazolin-4-ylthio)phenyl)urea], the S35 was “C* (0.20 < C ≦ 0.40)”.

Same assay, conditions: kinase selectivity score, 290 distinct kinases; class symbols
In the case of `CCOc1cc2ncnc(Sc3cccc(NC(=O)Nc4cc(C(C)(C)C)on4)c3)c2cc1OC` [Ex 50, 1-(5-tert-butylisoxazol-3-yl)-3-[3-(7-ethoxy-6-methoxyquinazolin-4-ylthio)phenyl]urea], the S35 is reported as “B (0.10 < B ≦ 0.20)”.

Same assay, conditions: kinase selectivity score, value marked * (larger kinase panel); class symbols
With `COc1cc2ncnc(Oc3cccc(NC(=O)Nc4cc(C(C)(CF)CF)no4)c3)c2cc1OC` [Ex 159, 1-[3-(1,3-difluoro-2-methylpropan-2-yl)isoxazol-5-yl]-3-[3-(6,7-dimethoxyquinazolin-4-yloxy]phenyl)urea] the S35 was “D* (D > 0.40)”.

Same assay, conditions: no asterisk: panel of 290 distinct kinases
With `COc1cc2ncnc(Sc3cccc(NC(=O)Nc4cc(C(C)(C)C(F)(F)F)no4)c3)c2cc1OC` [Ex 268, 1-(3-(6,7-dimethoxyquinazolin-4-ylthio)phenyl)-3-(3-(1,1,1-trifluoro-2-methylpropan-2-yl)isoxazol-5-yl)urea] the S35 was “C (0.20 < C ≦ 0.40)”. `COc1cc2c(Oc3cccc(NC(=O)Nc4cc(C(C)(C)C(F)(F)F)on4)c3)ncnc2cc1O` [Ex 263, 1-(3-(7-hydroxy-6-methoxyquinazolin-4-yloxy)phenyl)-3-(5-(1,1,1-trifluoro-2-methylpropan-2-yl)isoxazol-3-yl)urea] was tested, and the S35 was “C (0.20 < C ≦ 0.40)”. For `COc1cc2ncnc(Oc3ccc(Cl)c(NC(=O)Nc4cc(C(C)(C)C)nn4-c4ccc(C)cc4)c3)c2cc1OC` [Ex 298, 1-(3-tert-butyl-1-p-tolyl-1H-pyrazol-5-yl)-3-(2-chloro-5-(6,7-dimethoxyquinazolin-4-yloxy)phenyl)urea], the S35 was “D (D > 0.40)”. With `COc1cc2ncnc(Oc3ccc(Cl)c(NC(=O)Nc4cc(C(C)(C)C)nn4-c4ccccc4)c3)c2cc1OC` [Ex 301, 1-(3-tert-butyl-1-phenyl-1H-pyrazol-5-yl)-3-(2-chloro-5-(6,7-dimethoxyquinazolin-4-yloxy)phenyl)urea] the S35 was “D (D > 0.40)”. `CCOc1cc2c(Oc3cccc(NC(=O)Nc4cc(C(C)(CF)CF)on4)c3)ncnc2cc1OC` [Ex 393, 1-(5-(1,3-difluoro-2-methylpropan-2-yl)isoxazol-3-yl)-3-(3-(6-ethoxy-7-methoxyquinazolin-4-yloxy)phenyl)urea] was tested, and the S35 was “C (0.20 < C ≦ 0.40)”. For `COc1cc2ncnc(Oc3cccc(NC(=O)Nc4cc(C(C)(C)C)nn4Cc4ccccc4)c3)c2cc1OC` [Ex 357, 1-(1-benzyl-3-tert-butyl-1H-pyrazol-5-yl)-3-(3-(6,7-dimethoxyquinazolin-4-yloxy)phenyl)urea], the S35 was “C (0.20 < C ≦ 0.40)”. `COc1cc2ncnc(Oc3cccc(NC(=O)Nc4cc(C(C)(C)C)nn4-c4ccccc4F)c3)c2cc1OC` [Ex 372, 1-(3-tert-butyl-1-(2-fluorophenyl)-1H-pyrazol-5-yl)-3-(3-(6,7-dimethoxyquinazolin-4-yloxy)phenyl)urea] was tested, and the S35 was “D (D > 0.40)”. With `COc1ccc(-n2nc(C(C)(C)C)cc2NC(=O)Nc2cccc(Oc3ncnc4cc(OC)c(OC)cc34)c2)cc1` [Ex 361, 1-(3-tert-butyl-1-(4-methoxyphenyl)-1H-pyrazol-5-yl)-3-(3-(6,7-dimethoxyquinazolin-4-yloxy)phenyl)urea] the S35 was “C (0.20 < C ≦ 0.40)”. In the case of `COc1cc2ncnc(Oc3cc(NC(=O)Nc4cc(C(C)(C)C(F)(F)F)on4)ccc3F)c2cc1OC` [Ex 266, 1-(3-(6,7-dimethoxyquinazolin-4-yloxy)-4-fluorophenyl)-3-(5-(1,1,1-trifluoro-2-methylpropan-2-yl)isoxazol-3-yl)urea], the S35 is reported as “C (0.20 < C ≦ 0.40)”. `COc1cc2ncnc(Oc3cccc(NC(=O)Nc4cc(C(C)(C)C(F)(F)F)no4)c3)c2cc1OC` [Ex 267, 1-(3-(6,7-dimethoxyquinazolin-4-yloxy)phenyl)-3-(3-(1,1,1-trifluoro-2-methylpropan-2-yl)isoxazol-5-yl)urea] was tested, and the S35 was “C (0.20 < C ≦ 0.40)”. In the case of `CCOc1cc2ncnc(Sc3cccc(NC(=O)Nc4cc(C(C)(CF)CF)on4)c3)c2cc1OC` [Example 388, 1-(5-(1,3-difluoro-2-methylpropan-2-yl)isoxazol-3-yl)-3-(3-(7-ethoxy-6-methoxyquinazolin-4-ylthio)phenyl)urea], the S35 is reported as “C (0.20 < C ≦ 0.40)”. For `COc1cc2ncnc(Sc3cccc(NC(=O)Nc4cc(C(C)(C)C)nn4Cc4ccccc4)c3)c2cc1OC` [Ex 358, 1-(1-benzyl-3-tert-butyl-1H-pyrazol-5-yl)-3-(3-(6,7-dimethoxyquinazolin-4-ylthio)phenyl)urea], the S35 was “C (0.20 < C ≦ 0.40)”. For `COc1cc2ncnc(Sc3cccc(NC(=O)Nc4cc(C(C)(C)C)nn4-c4cccc(F)c4)c3)c2cc1OC` [Ex 360, 1-(3-tert-butyl-1-(3-fluorophenyl)-1H-pyrazol-5-yl)-3-(3-(6,7-dimethoxyquinazolin-4-ylthio)phenyl)urea], the S35 was “D (D > 0.40)”. For `COc1cc2ncnc(Oc3cccc(NC(=O)Nc4cc(C(C)(C)C)nn4-c4ccccc4)c3C)c2cc1OC` [Ex 289, 1-(3-tert-butyl-1-phenyl-1H-pyrazol-5-yl)-3-(3-(6,7-dimethoxyquinazolin-4-yloxy)-2-methylphenyl)urea], the S35 was “C (0.20 < C ≦ 0.40)”. For `COc1cc2ncnc(Oc3cc(NC(=O)Nc4cc(C(C)(C)F)no4)ccc3F)c2cc1OC` [Ex 293, 1-(3-(6,7-dimethoxyquinazolin-4-yloxy)-4-fluorophenyl)-3-(3-(2-fluoropropan-2-yl)isoxazol-5-yl)urea], the S35 was “C (0.20 < C ≦ 0.40)”. In the case of `COc1cc2ncnc(Oc3cccc(NC(=O)Nc4cc(C(C)(C)F)no4)c3)c2cc1O` [Ex 258, 1-(3-(2-fluoropropan-2-yl)isoxazol-5-yl)-3-(3-(6-hydroxy-7-methoxyquinazolin-4-yloxy)phenyl)urea], the S35 is reported as “C (0.20 < C ≦ 0.40)”. In the case of `CCOc1cc2ncnc(Oc3cccc(NC(=O)Nc4cc(C(C)(C)F)no4)c3)c2cc1OC` [Ex 385, 1-(3-(7-ethoxy-6-methoxyquinazolin-4-yloxy)phenyl)-3-(3-(2-fluoropropan-2-yl)isoxazol-5-yl)urea], the S35 is reported as “C (0.20 < C ≦ 0.40)”. For `COc1cc2ncnc(Oc3cccc(NC(=O)Nc4cnn(C(C)(C)C)c4)c3)c2cc1OC` [Ex 252, 1-(1-tert-butyl-1H-pyrazol-4-yl)-3-(3-(6,7-dimethoxyquinazolin-4-yloxy)phenyl)urea], the S35 was “C (0.20 < C ≦ 0.40)”. `COc1cc2ncnc(Sc3cccc(NC(=O)Nc4cc(C(C)(C)C)nn4-c4ccc(Cl)cc4)c3)c2cc1OC` [Ex 366, 1-(3-tert-butyl-1-(4-chlorophenyl)-1H-pyrazol-5-yl)-3-(3-(6,7-dimethoxyquinazolin-4-ylthio)phenyl)urea] was tested, and the S35 was “D (D > 0.40)”. For `COc1cc2ncnc(Oc3cccc(NC(=O)Nc4cc(C(C)(C)C)nn4-c4cnccc4C)c3)c2cc1OC` [Ex 303, 1-(3-tert-butyl-1-(4-methylpyridin-3-yl)-1H-pyrazol-5-yl)-3-(3-(6,7-dimethoxyquinazolin-4-yloxy)phenyl)urea], the S35 was “D (D > 0.40)”. `COc1cc2ncnc(Sc3cccc(NC(=O)Nc4cc(C5(C(F)(F)F)CC5)nn4-c4ccccc4)c3)c2cc1OC` [Ex 383, 1-(3-(6,7-dimethoxyquinazolin-4-ylthio)phenyl)-3-(1-phenyl-3-(1-(trifluoromethyl)cyclopropyl)-1H-pyrazol-5-yl)urea] was tested, and the S35 was “C (0.20 < C ≦ 0.40)”. In the case of `CCOc1cc2ncnc(Sc3cccc(NC(=O)Nc4cc(C(C)(C)F)no4)c3)c2cc1OC` [Ex 389, 1-(3-(7-ethoxy-6-methoxyquinazolin-4-ylthio)phenyl)-3-(3-(2-fluoropropan-2-yl)isoxazol-5-yl)urea], the S35 is reported as “C (0.20 < C ≦ 0.40)”.
